Columns and labels:
TGF-beta receptor type-1 [1] = molecular target: T1, TGF-beta receptor type-1 (Homo sapiens, UniProt P36897); assay: Inhibition of TGFbeta receptor in human HaCaT cells assessed as Smad phosphorylation by ELISA; assay type: cell-based
T1 sequence (P36897 whole entry): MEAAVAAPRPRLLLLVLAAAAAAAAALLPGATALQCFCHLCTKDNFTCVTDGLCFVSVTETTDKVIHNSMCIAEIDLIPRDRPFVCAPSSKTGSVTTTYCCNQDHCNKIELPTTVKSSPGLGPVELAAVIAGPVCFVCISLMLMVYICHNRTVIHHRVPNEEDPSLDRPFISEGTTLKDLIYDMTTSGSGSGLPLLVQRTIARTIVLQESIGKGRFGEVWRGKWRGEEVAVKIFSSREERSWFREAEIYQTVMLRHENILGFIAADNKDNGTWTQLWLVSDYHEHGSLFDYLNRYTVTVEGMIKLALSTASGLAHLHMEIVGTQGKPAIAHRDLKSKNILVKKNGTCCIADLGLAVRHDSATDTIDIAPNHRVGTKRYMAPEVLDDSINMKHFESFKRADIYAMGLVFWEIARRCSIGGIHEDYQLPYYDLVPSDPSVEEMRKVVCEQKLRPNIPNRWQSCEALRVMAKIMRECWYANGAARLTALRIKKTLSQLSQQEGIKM

TGF-beta receptor type-1 [2] = molecular target: T1, TGF-beta receptor type-1; assay: Inhibition of TGFbeta receptor
[3] = molecular target: Platelet-derived growth factor receptor alpha (Homo sapiens, UniProt P16234); assay: Inhibition of PDGFRalpha
Sequence of Platelet-derived growth factor receptor alpha (P16234 whole entry): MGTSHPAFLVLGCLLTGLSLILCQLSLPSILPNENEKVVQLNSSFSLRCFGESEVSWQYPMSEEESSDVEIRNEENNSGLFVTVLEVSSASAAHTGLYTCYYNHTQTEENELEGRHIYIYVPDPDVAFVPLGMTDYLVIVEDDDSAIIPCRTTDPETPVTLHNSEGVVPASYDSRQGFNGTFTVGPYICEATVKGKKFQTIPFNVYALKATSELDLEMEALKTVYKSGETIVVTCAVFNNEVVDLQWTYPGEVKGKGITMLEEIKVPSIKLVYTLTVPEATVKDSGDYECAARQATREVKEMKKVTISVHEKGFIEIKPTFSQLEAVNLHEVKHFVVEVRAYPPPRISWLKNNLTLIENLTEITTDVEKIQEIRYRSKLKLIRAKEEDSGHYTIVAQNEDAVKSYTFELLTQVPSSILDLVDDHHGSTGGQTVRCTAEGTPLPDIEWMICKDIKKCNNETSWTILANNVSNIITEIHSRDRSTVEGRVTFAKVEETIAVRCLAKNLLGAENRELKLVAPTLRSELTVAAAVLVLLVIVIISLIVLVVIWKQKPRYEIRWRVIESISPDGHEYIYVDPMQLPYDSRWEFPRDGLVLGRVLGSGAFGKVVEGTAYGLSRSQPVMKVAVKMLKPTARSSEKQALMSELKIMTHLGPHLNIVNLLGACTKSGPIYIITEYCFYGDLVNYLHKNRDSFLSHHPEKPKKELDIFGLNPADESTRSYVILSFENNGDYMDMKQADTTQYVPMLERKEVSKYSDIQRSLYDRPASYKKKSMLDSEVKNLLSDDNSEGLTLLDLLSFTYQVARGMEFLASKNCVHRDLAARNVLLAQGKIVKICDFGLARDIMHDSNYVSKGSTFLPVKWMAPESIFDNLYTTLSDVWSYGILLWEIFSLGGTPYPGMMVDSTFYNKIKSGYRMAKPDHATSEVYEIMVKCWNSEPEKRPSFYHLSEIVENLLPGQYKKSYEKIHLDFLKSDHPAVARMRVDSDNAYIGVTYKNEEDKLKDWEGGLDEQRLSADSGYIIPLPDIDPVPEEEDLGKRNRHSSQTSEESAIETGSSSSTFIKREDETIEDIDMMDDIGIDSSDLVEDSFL

HaCaT = assay: Cytotoxicity against human HaCaT cells

| SMILES | EC50 (TGF-beta receptor type-1 [1]) | IC50 (TGF-beta receptor type-1 [2]) | IC50 [3] | IC50 (HaCaT) |
| --- | --- | --- | --- | --- |
| O=C1Nc2cc(C(=O)N3CCCC3)ccc2/C1=C(/Nc1ccc(CN2CCCCC2)cc1)c1ccccc1 | 696 nM | 245 nM | – | – |
| CCN(CC)C(=O)c1ccc2c(c1)NC(=O)/C2=C(\Nc1ccc(CN2CCCCC2)cc1)c1ccccc1 | – | 625 nM | – | – |
| CCNC(=O)c1ccc2c(c1)NC(=O)/C2=C\Nc1ccc(N(C)C(=O)CN(C)C)cc1 | 4360 nM | 52 nM | – | – |
| CCN(C)C(=O)c1ccc2c(c1)NC(=O)/C2=C(\Nc1ccc(N(CC(=O)N(C)C)S(C)(=O)=O)cc1)c1ccccc1 | > 3000 nM | 86 nM | – | – |
| CCN(C)C(=O)c1ccc2c(c1)NC(=O)/C2=C(\NC1CCCCC1)c1ccccc1 | > 10000 nM | > 50000 nM | > 5000 nM | – |
| CCNC(=O)c1ccc2c(c1)NC(=O)/C2=C(\Nc1ccc(N(CCN(C)C)C(C)=O)cc1)c1ccccc1 | 1070 nM | 3 nM | – | – |
| CCN(C)C(=O)c1ccc2c(c1)NC(=O)/C2=C(\Nc1ccc(N(C)C(=O)CN(C)C)cc1)c1ccccc1 | 382 nM | 29 nM | – | – |
| NC(=O)c1ccc2c(c1)NC(=O)/C2=C(\Nc1ccc(CN2CCCCC2)cc1)c1ccccc1 | > 50000 nM | 369 nM | – | – |
| CCN(C)C(=O)c1ccc2c(c1)NC(=O)/C2=C(\Nc1ccc(CCN(C)C)cc1)c1ccccc1 | 259 nM | 64 nM | – | > 1000 nM |
| CCNC(=O)c1ccc2c(c1)NC(=O)/C2=C(\Nc1ccc(CN2CCCCC2)cc1)c1ccccc1 | 75 nM | 24 nM | – | – |
| CCNC(=O)c1ccc2c(c1)NC(=O)/C2=C(\Nc1ccc(N(C)C(=O)CN(C)C)cc1)c1ccccc1 | 3380 nM | 35 nM | – | – |
| CCN(C)C(=O)c1ccc2c(c1)NC(=O)/C2=C(\NC1CCN(C)CC1)c1ccccc1 | > 10000 nM | > 50000 nM | > 5000 nM | – |
| CCNC(=O)c1ccc2c(c1)NC(=O)/C2=C\Nc1ccc(N(CCCN(C)C)C(C)=O)cc1 | 597 nM | 17 nM | – | – |
| CCCCNC(=O)c1ccc2c(c1)NC(=O)/C2=C(\Nc1ccc(CN2CCCCC2)cc1)c1ccccc1 | 1060 nM | 91 nM | – | – |
| CCNC(=O)c1ccc2c(c1)NC(=O)/C2=C\Nc1ccc(N(C)C(=O)CN2CCN(C)CC2)cc1 | 2180 nM | 15 nM | > 5000 nM | – |

Further compounds by falling IC50 (TGF-beta receptor type-1 [2]), results first:

| EC50 (TGF-beta receptor type-1 [1]) | IC50 (TGF-beta receptor type-1 [2]) | IC50 [3] | SMILES | IC50 (HaCaT) |
| --- | --- | --- | --- | --- |
| – | 2590 nM | > 5000 nM | CCN(C)C(=O)c1ccc2c(c1)NC(=O)/C2=C(\Nc1ccccc1)c1ccccc1 | – |
| – | 1970 nM | – | CCN(C)C(=O)c1ccc2c(c1)NC(=O)/C2=C(\Nc1ccc(C(=O)OC)cc1)c1ccccc1 | – |
| – | 1530 nM | – | O=C1Nc2cc(C(=O)NCc3ccccc3)ccc2/C1=C(/Nc1ccc(CN2CCCCC2)cc1)c1ccccc1 | – |
| – | 782 nM | – | CCN(C)C(=O)c1ccc2c(c1)NC(=O)/C2=C(\Nc1ccc(C(=O)O)cc1)c1ccccc1 | – |
| – | 616 nM | – | CCN(CC)Cc1cccc(N/C(=C2\C(=O)Nc3cc(C(=O)N(C)CC)ccc32)c2ccccc2)c1 | – |
| > 50000 nM | 430 nM | – | O=C1Nc2cc(C(=O)NCCO)ccc2/C1=C(/Nc1ccc(CN2CCCCC2)cc1)c1ccccc1 | – |
| 708 nM | 318 nM | – | CC(C)NC(=O)c1ccc2c(c1)NC(=O)/C2=C(\Nc1ccc(CN2CCCCC2)cc1)c1ccccc1 | – |
| > 10000 nM | 231 nM | – | CCN(C)C(=O)c1ccc2c(c1)NC(=O)/C2=C(\Nc1ccc(N(C)S(C)(=O)=O)cc1)c1ccccc1 | – |
| 376 nM | 69 nM | – | CCNC(=O)c1ccc2c(c1)NC(=O)/C2=C\Nc1ccc(CN2CCCCC2)cc1 | – |
| 542 nM | 64 nM | – | CCN(CC)CCNC(=O)c1ccc(N/C(=C2\C(=O)Nc3cc(C(=O)N(C)CC)ccc32)c2ccccc2)cc1 | – |
| 135 nM | 47 nM | – | CCNC(=O)c1ccc2c(c1)NC(=O)/C2=C(\Nc1ccc(CCN(C)C)cc1)c1ccccc1 | – |
| 246 nM | 35 nM | – | CN(C)C(=O)c1ccc2c(c1)NC(=O)/C2=C(\Nc1ccc(CN2CCCCC2)cc1)c1ccccc1 | – |
| 505 nM | 33 nM | – | CCNC(=O)c1ccc2c(c1)NC(=O)/C2=C(\Nc1ccc(C(=O)NCCN(CC)CC)cc1)c1ccccc1 | – |
| – | 32 nM | – | CNC(=O)c1ccc2c(c1)NC(=O)/C2=C(\Nc1ccc(CN2CCCCC2)cc1)c1ccccc1 | – |
| 1370 nM | 9 nM | – | CCNC(=O)c1ccc2c(c1)NC(=O)/C2=C(\Nc1ccc(N(C)C(=O)CN2CCN(C)CC2)cc1)c1ccccc1 | – |
| 411 nM | 9 nM | – | CCN(C)C(=O)c1ccc2c(c1)NC(=O)/C2=C(\Nc1ccc(N(CCCN(C)C)C(C)=O)cc1)c1ccccc1 | – |
| 102 nM | 8 nM | – | CCN(C)C(=O)c1ccc2c(c1)NC(=O)/C2=C(\Nc1ccc(N(CCN(C)C)C(C)=O)cc1)c1ccccc1 | – |
| 833 nM | 7 nM | – | CCN(C)C(=O)c1ccc2c(c1)NC(=O)/C2=C(\Nc1ccc(N(C)C(=O)CN2CCN(C)CC2)cc1)c1ccccc1 | – |
| 209 nM | 7 nM | – | CCN(C)C(=O)c1ccc2c(c1)NC(=O)/C2=C(\Nc1ccc(N(CCN(C)C)S(C)(=O)=O)cc1)c1ccccc1 | – |
| 1250 nM | 3 nM | – | CCNC(=O)c1ccc2c(c1)NC(=O)/C2=C(\Nc1ccc(N(CCCN(C)C)C(C)=O)cc1)c1ccccc1 | – |
